Laboratory results taken from a melting point compilation (Tetko et al.; mined from patent text by program, amines drawn as free bases though some values may be those of a salt).

| Structure (SMILES) | melting point |
| --- | --- |
| COc1ccccc1N1CCN(CCn2c(=O)c3cscc3n(C(C)=O)c2=O)CC1 | 128 to 129 °C |
| CCOC(=O)C1=C(C)NC(COCCN=[N+]=[N-])=C(C(=O)OC)C1c1cccc(Cl)c1Cl (stereo unspecified) | 126 °C |
| O=C(c1ccncc1)N1CCN(Cc2ccc3c(c2)Cc2c(-c4ccsc4)n[nH]c2-3)CC1 | 218 to 220 °C |
| CCN(CC)C(=O)Nc1ccc(S(=O)(=O)N2C(=O)C(N)(c3ccccc3Cl)c3cc(Cl)ccc32)cc1 (stereo unspecified) | 195 to 196 °C |
| CN1CCN(C2CC3C4CCC5CC6OC6CC5(C)C4CCC3(C)C2=O)CC1 (stereo unspecified) | 132 to 134 °C |
| CC12CCC(OS(=O)(=O)C(F)(F)F)=CC1=CCC1C2CCC2(C)C(C(=O)N(C(=S)NC3CCCCC3)C3CCCCC3)CCC12 (stereo unspecified) | 123 to 124 °C |
| COc1cc(C2C3=C(COC3=O)Nc3ccc4ncsc4c32)cc(OC)c1OC (stereo unspecified) | 309 to 310 °C |
| CCCC=NNc1cc2c(nn1)CCN(C(=O)c1ccc(-c3ccccc3)cc1)C2 | 260 to 262 °C |
| Cc1ccc(N)c2c1CCC2=NNC(=N)N | > 250 °C |
| O=C(c1ccc(F)cc1)N1CCCC(c2nc(Oc3ccccc3)no2)C1 (stereo unspecified) | 96 to 100 °C |
| C[C@@H](c1ccccc1)N1C[C@@H](C(N)=O)CC1=O | 149 to 150 °C |
| O=C1CCC(=O)N1c1cccc2ccccc12 | 154 °C |
| CCCC(C(=O)N(C)C)n1cc(Cl)c(-c2ccccc2)n1 (stereo unspecified) | 85 to 87 °C |
| CC1(C)CCCc2cc(CC#Cc3ccc(C(=O)O)c(O)c3)ccc21 | 152 to 153 °C |
| NC1=NC(=O)N(c2ccccc2)C1 | 277 to 279 °C |
| CN1C(=O)CC[C@]2(C)c3ccc(-c4cccc(NC(c5ccccc5)c5ccccc5)c4)cc3CC[C@@H]12 | 109 to 111 °C |
| COC(=O)c1cccc(Cl)c1NC(=O)CC1c2ccccc2Oc2ccccc21 | 178 to 179 °C |
| COc1ccc(C(=O)c2cccc(S(N)(=O)=O)c2)cc1 | 119 to 122 °C |
| CCOC(=O)c1cc(=O)nc2n1-c1ccc(C)cc1OC2 | 136 to 137 °C |
| CCNc1nc2ccc(CCc3nc4cc(C)ccn4c3Br)cc2o1 | 149 to 153 °C |
| O=C(c1cc2cc3[nH]c(=O)oc3cc2[nH]1)N1CCC(OCc2ccccc2)CC1 | 258 to 261 °C |
| NCCCP(=O)(O)C1CCCCC1 | 202 to 203 °C |
| NS(=O)(=O)c1ccc(NN=C2C(=O)Nc3ccc(C(=O)NCc4ccco4)cc32)cc1 | > 250 °C |
| COc1cc2[nH]c3nc[nH]c(=O)c3c2cc1OC | 296 to 298 °C |

| Structure (SMILES) | melting point |
| --- | --- |
| Cc1cc(-c2nc3cccnn3c2-c2ccnc(NC(=O)CC(F)(F)F)c2)ccc1F | 220 to 221 °C |
| CC(=O)N(C)c1cccc(OC(CCc2ccc(Cl)cc2)Cn2ccnc2)c1 (stereo unspecified) | 229 to 231 °C |
| O=C(NCCN1CCN=C1c1ccccn1)Nc1ccc(C(=O)O)cc1 | 220 to 223 °C |
| N#CCCNC(=O)c1cccc(-c2cccc(Oc3ccc4c(c3)CCC4)n2)c1 | 122 to 123 °C |
| COc1cc(Nc2c(C#N)cnc3c2sc2ccc([N+](=O)[O-])cc23)c(C)cc1Cl | > 305 °C |
| CCCCCCCCNC(=O)[C@@H]1C[C@H]1c1ccc([N+](=O)[O-])cc1 (relative stereo) | 126 to 129 °C |
| CC(C)(C)OC(=O)NCCNC(=O)c1ncsc1-c1ccccc1 | 139 to 140 °C |
| CCCCOc1cc(CCC(=O)O)ccc1OCCCc1cn(-c2ccc(C(F)(F)F)cn2)nc1OCC | 92 to 93 °C |
| CC(Oc1ccc([N+](=O)[O-])cc1)c1nnc(N=C=O)s1 (stereo unspecified) | 215 to 221 °C |
| O=C(O)c1cccc2c1CCc1cc(C(F)(F)F)ccc1S2 | 178 to 180 °C |
| Cn1c(Nc2c(Cl)ccc(CNC(=O)C(C)(C)C)c2Cl)nc2cc(C(=O)N[C@H]3CC[C@H](C(F)(F)F)CC3)c(N3CCC(C(F)(F)F)CC3)nc21 | 185 to 186 °C |
| COc1ccc(CC(=O)NC(NC(=NC#N)Nc2cccnc2OC)C(C)(Cl)Cl)cc1OC (stereo unspecified) | 188 to 190 °C |
| Cc1ccc(C)c(NC(=O)CN2CCN(c3ncccc3C#N)CC2)c1 | 106 to 108 °C |
| CCCCOC1C=CC(=O)N1S(=O)(=O)c1ccc(OC)cc1 (stereo unspecified) | 65 to 66 °C |
| CCCCCCc1cc2c(s1)-n1c(C)nnc1CN=C2c1cccc(C)c1C | 103 to 105 °C |
| Cc1cccc2nc(O)n(C3CCC(=O)NC3=O)c(=O)c12 (stereo unspecified) | 373 to 375 °C |
| COCc1cc2c(nc(C)n2C)c(O)c1CCC(=O)c1ccccc1C | 163 °C |
| C=C(C)C(C(=O)OC(C)(C)C)C1(CC(C)C)CCN(CCc2ccccc2)C1=O (stereo unspecified) | 54.5 to 56 °C |
| CCn1nnc(Nc2ccc3nc(NCc4ccccc4OC)ccc3c2)n1 | 190 °C |
| O=C(O)/C=C/C=C(c1ccc(Cl)cc1)c1ccc(Cl)cc1 | 213 to 215 °C |
| O=C(Nc1cccc(S(=O)(=O)NCCO)c1)c1cnn2c(C(F)F)cc(-c3ccc(C(F)(F)F)cc3)nc12 | 231 °C |
| O=C(c1ccc(F)cc1)C1CCN(CCN(C(=O)c2ccc([N+](=O)[O-])cc2)c2ccccc2C(F)(F)F)CC1 | 157 to 158 °C |
| Cc1cc(N2CCN(c3ccc(C(F)(F)F)cn3)CC2)cc(C)c1O | 143 to 144 °C |
| CCOC(=O)c1c(N2CCN(C(=O)c3cccs3)CC2)c2cccnc2n(Cc2ccccc2F)c1=O | 105 to 110 °C |

| Structure (SMILES) | melting point |
| --- | --- |
| CCc1nc(OC)c(NC(=O)N2CCN(c3cc(OC)cc(OC)c3)CC2)cc1C | 115 to 116 °C |
| CCCCCCCCCCCCOC(=O)NS(=O)(=O)Nc1c(OC)cc(OC)cc1OC | 133 to 136 °C |
| CN1C(=O)C(C2=COc3ccccc3O2)=C(c2cn(C(=O)OC(C)(C)C)c3ccc(OCc4ccccc4)cc23)C1=O | 93 °C |
| Cn1ncc(/C=C/C(=O)Nc2ccc(Cc3nnn[nH]3)cc2)c1-c1ccc(F)cc1 | 252 to 253 °C |
| CNc1nc(C)c(C(=O)c2sc(NC)nc2C)s1 | 184 to 185 °C |
| COc1ccc(CC(C)NC(=O)C(F)(F)F)cc1 (stereo unspecified) | 100 to 102 °C |
| Cc1ccc(-c2c(NS(=O)(=O)c3ccc(C(C)(C)C)cc3)ncnc2OCCOc2ccc(NC(=O)c3ccccc3)cn2)cc1 | 173 to 174 °C |
| CCCCCCCCCCCCCCCCN(c1ccccc1)S(=O)(=O)c1ccc(Nc2cc(=O)n(-c3c(C)cc(Cl)cc3Cl)n2C(=O)OCC)cc1 | 85 °C |
| O=C(NCCO)/C(=C/c1ccc(OCC(F)(F)F)cc1)NC(=O)c1ccc(OCCC2CC2)cc1 | 173 to 175 °C |
| Nc1ccc(C(F)(F)F)cc1C(=O)O | 191 to 192 °C |
| CC(C)n1cc(C(=O)Nc2nncs2)c2ccc(Cl)cc21 | 274 to 275 °C |
| O=[N+]([O-])c1cc(Cl)ccc1NS(=O)(=O)c1ccc(Cl)cc1 | 122 to 123 °C |
| CCOC(=O)COc1cc(-c2nn(C)c(C(F)(F)F)c2Cl)c(F)cc1Cl | 130 to 131 °C |
| CC1=C(C2C=CN(C(=O)OCC(Cl)(Cl)Cl)N=C2)SCC(=O)N1 (stereo unspecified) | 156 to 157 °C |
| CCOC(=O)C(Cc1cc(C)cc(OC(F)(F)C(F)F)c1)C(=O)c1ccc(F)cc1 (stereo unspecified) | 56 to 57 °C |
| COc1ccc(-c2cc3ccccc3[nH]2)cc1NC(=S)Nc1ccc(C(=O)O)cc1 | 201 to 203 °C |
| Cn1ccn(-c2ccc(N3CCN(c4ccc(O)cc4)CC3)cc2)c1=O | 283 °C |
| CCOC(=O)c1cn(CCCl)c2cc(Cl)ccc2c1=O | 208 to 210 °C |
| Cc1cc(OC2CCCCO2)c(C)cc1OCCCC(C)(C)C(=O)O (stereo unspecified) | 122 to 124 °C |
| CN(C)c1ccc(C(=O)C#Cc2ccncc2)cc1 | 143 to 145 °C |
| Cc1ncc2c(c1OCC(=O)O)COC2(C)c1ccc(Cl)cc1 (stereo unspecified) | 184 °C |
| Cc1nc[nH]c1CSCCNC1=NCCS(=O)(=O)N1 | 146 to 147 °C |
| Cc1c(S(C)(=O)=O)cc([N+](=O)[O-])c(Cl)c1[N+](=O)[O-] | 174 to 175 °C |
| Cc1ccc(-c2ccc3c(c2)C=C(C(=O)Nc2ccc(C(O)c4ccccn4)cc2)C(C)O3)cc1 (stereo unspecified) | 202 to 205 °C |

| Structure (SMILES) | melting point |
| --- | --- |
| N#Cc1cnn2c1N(C(=O)CN1CCN(Cc3ccccc3F)CC1)CC=C2c1cccc(C(F)(F)F)c1 | 188 to 190 °C |
| CCCCc1ncc(CC(NC(=O)C(c2ccccc2)c2ccccc2)C(=O)O)n1Cc1ccccc1Cl (stereo unspecified) | 222 to 225 °C |
| O=c1ccn(CCO)c(C(O)c2ccc3c(c2)OCO3)c1OCc1ccccc1 (stereo unspecified) | 195 to 196 °C |
| Cc1oc(-c2ccccc2)nc1CSc1ccc(S(=O)(=O)Nc2ccccc2C(=O)O)cc1 | 182 to 184 °C |
| O=CNNc1ccc(NC(=S)N2CCCCC2)cc1 | 174 to 176 °C |
| CC1=C(N)C(=O)C2CC1C2(C)C (stereo unspecified) | 45 to 46 °C |
| Nc1cc(=O)nc(Nc2ccc(F)cc2)n1-c1ccccc1 | 225 to 227 °C |
| Cn1nnnc1SCCCC(=O)c1ccco1 | 41 to 42 °C |
| Cc1nc(-c2ccccc2)nc(-c2cccc([N+](=O)[O-])c2)c1CN1CCN(C)CC1 | 138 to 140 °C |
| Cn1ncc2c(=O)n3c(nc21)SCCCC3 | 157 °C |
| CCOC(=O)c1ccc2c(c1)nc(-c1c(Cl)cccc1Cl)n2C | 164 to 166 °C |
| O=CN1CCN(c2nc3cccccc-3n2)CC1 | 170 to 173 °C |
| N#Cc1ccc(OCc2ccsc2)cc1OC(C(=O)O)c1ccccc1Br (racemic) | 89 to 98 °C |
| O=C(CN1CCC(Cc2ccc(F)cc2)CC1)Nc1cccc([N+](=O)[O-])c1 | 118 to 120 °C |
| CCCCCCCNC(=O)Nc1ccccc1C(=O)Nc1ccc(N(C)C)cc1 | 178 to 180 °C |
| CS(=O)(=O)c1ccc(-n2nc(C(F)(F)F)cc2-c2ccc(-c3ccoc3)cc2)cc1 | 165 to 166 °C |
| c1ccc2c(c1)CSCCCN2 | 77 to 79 °C |
| CCCCCN(CCCCC)C(=O)C(CCC(=O)OC)CS(=O)(=O)c1ccc(Cl)c(Cl)c1 (stereo unspecified) | 52 to 54 °C |
| Cc1cn(N=Cc2cccnc2)c(=O)n1CC#N | 195 to 198 °C |
| CCC(=O)C1c2cccc(O)c2C(=O)c2c(OC(C)=O)cccc21 (stereo unspecified) | 106 °C |
| COC1CC2(C)C(CCC3C4CC(C)=C(C(C)=O)C4(C)CC(=O)C32)CC1O (stereo unspecified) | 184 to 186 °C |
| COc1cc(OC)c(Br)cc1O | 78 to 80 °C |
| CC(C)(C)OC1CCC2(C)C(=CCC3C4CCC(=O)C4(C)CCC32)C1 (stereo unspecified) | 185 to 187 °C |
| O=C(Nc1ccc(F)cc1O)c1cc(Cl)c(O)c(Cl)c1 | 223 to 224 °C |
